# Reference: patent US5705190A, “Controlled release formulation for poorly soluble basic drugs” (Abbott Laboratories, priority 1995, dated 1998)
# Like-named read-outs stand apart in the source and are kept apart here.
# Key:
# [1] = in vivo
# [2] = cited from earlier work
Compound,water solubility (1 part of drug in the number of parts of water) ([2]; water),other results
CC[C@H]1OC(=O)[C@H](C)[C@@H](O[C@H]2C[C@@](C)(OC)[C@@H](O)[C@H](C)O2)[C@H](C)[C@@H](O[C@@H]2O[C@H](C)C[C@H](N(C)C)[C@H]2O)[C@](C)(O)C[C@@H](C)C(=O)[C@H](C)[C@@H](O)[C@]1(C)O [erythromycin],"1,000 parts of water",reproducibly bioavailable controlled release formulations [1]: not possible
CC1Cc2ccccc2N1NC(=O)c1ccc(Cl)c(S(N)(=O)=O)c1 (stereo not drawn) [indapamide],"more than 10,000 parts of water",
CC[C@H]1OC(=O)C[C@@H](O)[C@H](C)[C@@H](O[C@@H]2O[C@H](C)[C@@H](O[C@H]3C[C@@](C)(O)[C@@H](O)[C@H](C)O3)[C@H](N(C)C)[C@H]2O)[C@@H](CC=O)C[C@@H](C)C(=O)/C=C/C(C)=C/[C@@H]1CO[C@@H]1O[C@H](C)[C@@H](O)[C@@H](OC)[C@H]1OC [tylosin],"100-1,000 parts of water",
Cc1ncc([N+](=O)[O-])n1CCO [metronidazole],"100-1,000 parts of water",
CCC(=O)O[C@@H]1CC(=O)O[C@H](C)C/C=C/C=C/[C@H](O)[C@H](C)C[C@H](CC=O)[C@H](O[C@@H]2O[C@H](C)[C@@H](O[C@H]3C[C@@](C)(O)[C@@H](OC(=O)CC)[C@H](C)O3)[C@H](N(C)C)[C@H]2O)[C@H]1OC [midecamycin],,water solubility in words ([2]; water): very slightly soluble in water
CO[C@@H]1[C@@H](O[C@@H]2O[C@H](C)[C@@H](O[C@H]3C[C@@](C)(O)[C@@H](OC(=O)CC(C)C)[C@H](C)O3)[C@H](N(C)C)[C@H]2O)[C@@H](CC=O)C[C@@H](C)[C@@H](O)/C=C/C=C/C[C@@H](C)OC(=O)C[C@H]1OC(C)=O [josamycin],"1,000-10,000 parts of water",
kitasamycin,"1,000-10,000 parts of water",
CC[C@H]1OC(=O)[C@H](C)[C@@H](O[C@H]2C[C@@](C)(OC)[C@@H](O)[C@H](C)O2)[C@H](C)[C@@H](O[C@@H]2O[C@H](C)C[C@H](N(C)C)[C@H]2O)[C@](C)(OC)C[C@@H](C)C(=O)[C@H](C)[C@@H](O)[C@]1(C)O [clarithromycin],,"water solubility (1 part of drug in the number of parts of water) ([2]; 1 part drug in x parts water, a higher number is a lower solubility): ~1,000 parts of water; solubility in the stomach ([2]; pH 1.2): very soluble; solubility in the upper region of the small intestine ([2]; pH 5.0): fairly soluble; solubility in the lower intestine ([2]; pH 6 to 8): solubility decreases"
